Patent publication US8039668B2, “Naphthalene-based inhibitors of anti-apoptotic proteins” (Burnham Institute for Medical Research, priority 2008, dated 2011)
pEC50, pIC50, pKd: −log10 of the molar value. Where two headings read alike, the source gives them in different places.

Experiments:
[1] = Liver microsomal stability; assay type: in vitro ADME, rat; conditions: Table 6; rat liver microsomes, 1 h
From the text: Liver Microsomal Stability.

[2] = tested on: H460 human lung cell line; experiment: Cell viability, ATP-LITE assay; assay type: cell-based; conditions: for pEC50: Homo sapiens
Experimental: (§1) The activity of the compounds against human cancer cell lines (PC3ML, H460, H1299, RS11846) were assessed by using the ATP-LITE assay (PerkinElmer). All cells were seeded in either F12 or RPMI1640 medium with 5 mM L-glutamine supplemented with 5% fetal bovine serum (Mediatech Inc.), penicillin and streptomycin (Omega). For maintenance, cells were cultured in 5% FBS. Cells plated into 96 well plates at varying initial densities depending on doubling time. H460 and H1299 plated at 2000 cells/well, A549 and PC3 at 3000 cells/well, and RS118456S at 10,000 cells/well. Compounds were diluted to final concentrations with 0.1% DMSO. Prior to dispensing compounds onto cells, fresh 5% media was placed into wells. Administration of compounds occurred 24 hours after seeding into the fresh media. Cell viability was evaluated using ATP-LITE reagent (PerkinElmer) after 72 hours of treatment. Data were normalized to the DMSO control-treated cells using Prism version 5.01 (Graphpad Software).

[3] = tested on: PC3ML cells; experiment: Cell viability, ATP-LITE assay; assay type: cell-based, human; conditions: Homo sapiens, PC3-ML
Experimental: as §1

[4] = tested on: H1299 cell line; experiment: Cell viability, ATP-LITE assay; assay type: cell-based, human; conditions: Homo sapiens
Experimental: as §1

[5] = tested on: Bax/Bak double knockout mouse embryonic fibroblast cells (MEF/DKO); experiment: FITC-Annexin V/PI cytotoxicity in Bax/Bak double knockout cells; assay type: cell-based; conditions: 10 μM
Experimental: MEF/WT and MEF/DKO cells were seeded in 24-well plate at a seeding density of half a million per well (in 1 ml of DMEM medium supplemented by 10% FCS). […] On the following day, floating cells were pooled with adherent cells harvested after brief incubation with 0.25% Trypsin/EDTA solution (Gibco/In-Vitrogen Inc.). Cells were centrifuged and supernatant was discarded, and cell pellet was re-suspended with 0.2 ml of Annexin-V binding buffer, followed by addition of 1 μl Annexin-FITC and 1 μl PI (propidium iodide). The percentage of viable cells was determined by a 3-color FACSort instrument and data analyzed by Flow-Jo program, scoring Annexin V-negative, PI-negative as viable cells.

[6] = molecular target: T1, BCL-XL (Homo sapiens, UniProt Q07817); experiment: Competitive fluorescence polarization assay (FPA), Bak BH3 peptide; assay type: binding; parameters: 100 nM GST-BCL-XL ΔTM protein; conditions: read-out: IC50 FPA Bcl-XL
Experimental: For competitive binding assays, 100 nM GST-BCL-XL ΔTM protein was preincubated with the tested compound at varying concentrations in 47.5 μL PBS (pH=7.4) in 96-well black plates at room temperature for 10 min, then 2.5 μL of 100 nM FITC-labeled Bak BH3 peptide was added to produce a final volume of 50 μL. The wild-type and mutant Bak BH3 peptides were included in each assay plate as positive and negative controls, respectively. […] IC50 was determined by fitting the experimental data to a sigmoidal dose-response nonlinear regression model (SigmaPlot 10.0.1, Systat Software, Inc., San Jose, Calif., USA). Data reported are mean of three independent experiments±standard error (SE). […] Fluorescence polarization was measured after 10 min.
Target sequence in this assay (Q07817 1-209 limits assumed): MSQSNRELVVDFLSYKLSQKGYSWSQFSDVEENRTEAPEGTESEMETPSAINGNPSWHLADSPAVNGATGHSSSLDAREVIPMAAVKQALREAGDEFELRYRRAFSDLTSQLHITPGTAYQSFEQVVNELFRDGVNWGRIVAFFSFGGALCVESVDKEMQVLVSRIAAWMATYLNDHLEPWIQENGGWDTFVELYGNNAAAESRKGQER

[7] = molecular target: Bcl-2 (Homo sapiens, UniProt P10415); experiment: Competitive fluorescence polarization assay (FPA), Bim BH3 peptide; assay type: binding
[8] = tested on: human lymphoma RS11846 cell line; experiment: Apoptosis, Annexin V-FITC and propidium iodide assay; assay type: cell-based; conditions: Homo sapiens
Experimental: The apoptotic activity of the compounds against RS11846 cells was assessed by staining with Annexin V- and propidium iodide (PI). Lymphoma cell line, RS11846, was cultured in RPMI 1640 medium (Mediatech Inc., Herndon, Va. 20171) containing 10% fetal bovine serum (Mediatech Inc., Herndon, Va. 20171) and Penicillin/Streptomycin (Mediatech Inc., Herndon, Va. 20171). […] The percentage of viable cells was determined by FITC-Annexin V- and propidium iodide (PI)-labeling, using an Apoptosis Detection kit (BioVision Inc.), and analyzing stained cells by flow cytometry (FACSort; Bectin-Dickinson, Inc.; Mountain View, Calif.). Cells that were annexin-V-negative and PI-negative were considered viable.

[9] = molecular target: T2, Bfl-1 (Homo sapiens, UniProt Q16548); experiment: Competitive fluorescence polarization assay (FPA); assay type: binding
T2 sequence (Q16548 1-175): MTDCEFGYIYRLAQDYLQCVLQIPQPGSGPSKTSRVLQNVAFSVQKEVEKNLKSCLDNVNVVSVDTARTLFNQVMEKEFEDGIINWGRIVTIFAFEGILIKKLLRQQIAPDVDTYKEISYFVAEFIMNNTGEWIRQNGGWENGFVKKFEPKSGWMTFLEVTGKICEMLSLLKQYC

[10] = molecular target: Mcl-1 (Homo sapiens, UniProt Q07820); experiment: Competitive fluorescence polarization assay (FPA), Bim BH3 peptide; assay type: binding
[11] = tested on: B6Bcl-2 transgenic mice; conditions: for Tox: Bcl-2 transgenic mouse, single ip injection 72 μmol/kg; for percentage of maximum reduction in spleen weight (maximal biological activity) / spleen weight reduction: single ip 72 μmol/kg; for percentage of maximum reduction in spleen weight (maximal biological activity): maximum shrinkage no more than 50%; for spleen weight reduction: single mouse
Experimental: Transgenic mice expressing BCL-2 have been described as the B6 line. The BCL-2 transgene res a minigene version of a t(14;18) translocation in which the human BCL-2 gene is fused with the immunoglobulin heavy-chain (IgH) locus and associated IgH enhancer. The transgene was propagated on the Balb/c background.
After 24 hours, B6BCL2 mice were sacrificed by intraperitoneal injection of lethal dose of Avertin. Spleen was removed and weighed. […] Spleen tissue was fixed in z-FIX for 3 days and rinsed in PBS, and saved for histological analysis of spleen (H&E staining and TUNEL assay).

[12] = molecular target: T1, BCL-XL; experiment: Isothermal titration calorimetry (ITC); assay type: binding
Experimental: Titrations were performed using a VP-ITC or ITC200 calorimeter from Microcal (Northampton, Mass.). BCL-XL was used at concentrations between 25 and 100 μM in 20 mM sodium phosphate buffer (pH 7.4) and 5-10% DMSO. Titrants were used at concentrations 10-15 fold of that of the protein in the same buffer. Titrations were carried out at 25° C. Data were analyzed using Microcal Origin software provided by the ITC manufacturer (Microcal, Northampton, Mass.).
Target sequence in this assay (Q07817 whole entry): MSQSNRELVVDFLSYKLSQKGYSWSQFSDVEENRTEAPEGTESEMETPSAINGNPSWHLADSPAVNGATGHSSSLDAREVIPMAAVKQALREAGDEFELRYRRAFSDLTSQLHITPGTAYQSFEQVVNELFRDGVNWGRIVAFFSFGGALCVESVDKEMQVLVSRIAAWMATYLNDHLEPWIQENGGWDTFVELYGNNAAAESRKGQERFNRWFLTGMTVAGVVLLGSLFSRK

[13] = Plasma stability; assay type: in vitro ADME, rat; conditions: Table 6; rat plasma, 1 h
Experimental: Plasma Stability. A 20 μL aliquot of a 10 mM solution in DMSO of the test compound was added to 2.0 mL of heparinized rat plasma (Lampire, P1-150N) to obtain a 100 μM final solution. The mixture was incubated for 1 h at 37.5° C. Aliquots of 100 μL were taken (0, 30 min, 1 h) and diluted with 200 μL of MeOH containing internal standard.

[14] = molecular target: T1, BCL-XL; experiment: 1D 1H-NMR binding assay; parameters: key to 1D-^1H NMR: +++, Very Active; ++, Active; +, Mild; −, Weak; conditions: for 1D-^1H NMR: BCL-XL 25 μM, compound 200 μM
Experimental: By observing the aliphatic region of the spectra, binding could be readily detected due to chemical shift changes in active site methyl groups of Ile, Leu, Thr, Val or Ala (region between −0.8 and 0.3 ppm). All experiments were performed with a 600 MHz spectrometer Bruker Avance 600 equipped with four rf channels and z-axis pulse-field gradients.
Target sequence in this assay (Q07817 whole entry): as above

[15] = tested on: BP3 human B-cell lymphoma cell line; experiment: Annexin V-FITC and propidium iodide assay; assay type: cell-based; conditions: Homo sapiens, B-cell, Table 3, Annexin V-FITC and propidium iodide assay, read-out: EC50 BP3
[16] = tested on: RS11846 cell line; experiment: Cell viability, ATP-LITE assay; assay type: cell-based; conditions: Homo sapiens, read-out: RS11846 EC50 (ATP-LITE assay)
Experimental: as §1

[17] = NCI-H460, Table 3, ATP-LITE assay, read-out: EC50 H460
[18] = Table 3, ATP-LITE assay, heading: EC50 PC3ML, read-out: EC50 PC3ML
[19] = NCI-H1299, heading: EC50 H1299, Table 3, ATP-LITE assay, read-out: EC50 H1299
[20] = Table 3, Annexin V-FITC and propidium iodide assay, heading: EC50 RS11846, read-out: EC50 RS11846

Chain of Bcl-2 (P10415 whole entry): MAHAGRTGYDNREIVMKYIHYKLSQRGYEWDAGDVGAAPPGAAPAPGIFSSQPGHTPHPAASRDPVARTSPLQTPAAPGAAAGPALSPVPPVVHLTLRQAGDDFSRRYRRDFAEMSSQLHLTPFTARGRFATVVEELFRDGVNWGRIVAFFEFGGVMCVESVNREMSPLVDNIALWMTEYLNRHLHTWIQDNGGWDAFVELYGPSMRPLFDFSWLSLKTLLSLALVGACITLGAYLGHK
Chain of Mcl-1 (Q07820 whole entry): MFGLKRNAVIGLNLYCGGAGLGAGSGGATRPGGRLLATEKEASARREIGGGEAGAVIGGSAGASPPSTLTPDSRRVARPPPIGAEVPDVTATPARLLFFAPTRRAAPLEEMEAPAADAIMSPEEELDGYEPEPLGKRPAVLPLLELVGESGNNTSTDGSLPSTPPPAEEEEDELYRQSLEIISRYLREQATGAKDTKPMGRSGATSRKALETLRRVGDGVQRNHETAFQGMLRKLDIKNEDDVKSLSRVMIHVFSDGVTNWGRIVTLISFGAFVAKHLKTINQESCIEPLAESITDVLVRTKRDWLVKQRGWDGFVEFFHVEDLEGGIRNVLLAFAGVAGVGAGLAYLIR

| Structure (SMILES) | Microsomal Stability (T = 1 h) [1] [%] | pEC50 [2, 17] | pEC50 [3, 18] | pEC50 [4, 19] | pIC50 [6] | pIC50 [7] | pEC50 [8, 20] | pIC50 [10] | Tox [11] | Plasma stability (T = 1 h) [13] [%] | 1D-^1H NMR ([14]; Table 3) | also measured |
| --- | --- | --- | --- | --- | --- | --- | --- | --- | --- | --- | --- | --- |
| Cc1cc2c(C(=O)NC(C)c3ccc(Cl)cc3)c(O)c(O)cc2c(O)c1-c1c(C)cc2c(C(=O)NC(C)c3ccc(Cl)cc3)c(O)c(O)cc2c1O (centres unmarked) [Compound 8k, N^5,N^5′-bis(1-(4-chlorophenyl)ethyl)-1,1′,6,6′,7,7′-hexahydroxy-3,3′-dimethyl-2,2′-binaphthyl-5,5′-dicarboxamide] | 71 | 6.30 | 5.30 | 5.49 | 6.57 | 6.31 | 5.26 | 6.64 | 4+ | 94 | +++ | MEF/DKO cells killed [5]: 20-35%; pIC50 [9]: 6.40; percentage of maximum reduction in spleen weight (maximal biological activity) [11]: 85-95%; spleen weight reduction [11]: more than 40%; pKd [12]: 6.96; pEC50 ([15]; heading: EC50 BP3): 5.82 |
| Cc1cc2c(CC3CCCC3)c(O)c(O)cc2c(O)c1-c1c(C)cc2c(CC3CCCC3)c(O)c(O)cc2c1O [Compound 12c, 5,5′-bis(cyclopentylmethyl)-3,3′-dimethyl-2,2′-binaphthyl-1,1′,6,6′,7,7′-hexaol] | 75 | – | – | – | – | – | – | – | 1+ | 81 | – | pEC50 ([2]; NCI-H460, ATP-LITE assay, read-out: EC50 H460): 5.74; pEC50 ([3]; ATP-LITE assay, read-out: EC50 PC3ML): 4.95; pEC50 ([4]; NCI-H1299, ATP-LITE assay, read-out: EC50 H1299): 4.96; pEC50 ([8]; Annexin V-FITC and propidium iodide assay, read-out: EC50 RS11846): 5.35; signs of toxicity ([11]; 72 μmol/kg and even 120 μmol/kg): no significant signs of toxicity; 1D-^1H NMR ([14]; Table 4): + |
| Cc1ccc(CC(=O)c2c(O)c(O)cc3c(O)c(-c4c(C)cc5c(C(=O)Cc6ccc(C)cc6)c(O)c(O)cc5c4O)c(C)cc23)cc1 [Compound XII, 1,1′-(1,1′,6,6′,7,7′-hexahydroxy-3,3′-dimethyl-2,2′-binaphthyl-5,5′-diyl)bis(2-p-tolylethanone)] | – | – | – | – | – | – | – | – | – | – | – | pEC50 [16]: 5.66; pEC50 ([2]; NCI-H460, read-out: H460 EC50): 6.09; times more potent than Apogossypol, H460 ([2]; vs Apogossypol): 4-5; pEC50 ([3]; read-out: PC3ML EC50, Table 9): 5.34 to 5.72; pEC50 ([4]; NCI-H1299, read-out: H1299 EC50): 5.77; pEC50 ([8]; read-out: RS11846 EC50 (Annexin V- and propidium iodide assay), Table 9): 5.26 to 5.52; times more potent than Apogossypol, ITC Bcl-XL ([12]; vs Apogossypol): 40; 1D ^1H-NMR Binding Assay (BCL-XL) ([14]; Table 9): ++ |
| Cc1cc2c(C(=O)NCCc3ccccc3)c(O)c(O)cc2c(O)c1-c1c(C)cc2c(C(=O)NCCc3ccccc3)c(O)c(O)cc2c1O [Compound 8n, 1,1′,6,6′,7,7′-hexahydroxy-3,3′-dimethyl-N^5,N^5′-diphenethyl-2,2′-binaphthyl-5,5′-dicarboxamide] | 60 | – | – | – | 6.10 | 6.82 | – | 6.52 | – | 63 | ++ | – |
| Cc1cc2c(C(=O)NC3Cc4ccccc4C3)c(O)c(O)cc2c(O)c1-c1c(C)cc2c(C(=O)NC3Cc4ccccc4C3)c(O)c(O)cc2c1O [Compound 8s, N^5,N^5′-bis(2,3-dihydro-1H-inden-2-yl)-1,1′,6,6′,7,7′-hexahydroxy-3,3′-dimethyl-2,2′-binaphthyl-5,5′-dicarboxamide] | – | 6.03 | 5.52 | 5.15 | 6.07 | 6.15 | 5.39 | 6.46 | – | – | ++ | pIC50 [9]: 6.17; pEC50 ([15]; heading: EC50 BP3): 5.96 |
| Cc1cc2c(C(=O)NCCc3cccc(Cl)c3)c(O)c(O)cc2c(O)c1-c1c(C)cc2c(C(=O)NCCc3cccc(Cl)c3)c(O)c(O)cc2c1O [Compound 8p, N^5,N^5′-bis(3-chlorophenethyl)-1,1′,6,6′,7,7′-hexahydroxy-3,3′-dimethyl-2,2′-binaphthyl-5,5′-dicarboxamide] | 90 | 6.00 | 5.49 | 5.11 | 5.20 | 5.36 | 5.34 | 5.49 | 4+ | – | +++ | MEF/DKO cells killed [5]: 20-35%; percentage of maximum reduction in spleen weight (maximal biological activity) [11]: 85-95%; spleen weight reduction [11]: more than 40%; pEC50 [15]: 6.39 |
| Cc1cc(C)c(CNC(=O)c2c(O)c(O)cc3c(O)c(-c4c(C)cc5c(C(=O)NCc6c(C)cc(C)cc6C)c(O)c(O)cc5c4O)c(C)cc23)c(C)c1 [Compound 8j, 1,1′,6,6′,7,7′-hexahydroxy-3,3′-dimethyl-N^5,N^5′-bis(2,4,6-trimethylbenzyl)-2,2′-binaphthyl-5,5′-dicarboxamide] | – | – | – | – | 6.10 | 6.15 | – | 5.96 | – | – | ++ | – |
